Measurements taken from patent publication US7375085B1, “Melanocyte-stimulating hormone inhibitors” (Ajinomoto Co., Inc., priority 1999, dated 2008).
Read-outs that look alike come from different tables or passages of the source. Non-standard residues stand in square brackets, D forms with d. Residues, ends and D or L forms follow the SMILES beside them. 1Nal = N[C@@H](Cc1cccc2ccccc12)C(=O)O; d1Nal = N[C@H](Cc1cccc2ccccc12)C(=O)O; d2Nal = N[C@H](Cc1ccc2ccccc2c1)C(=O)O

How the values were obtained:
[1] = test system: Human melanocytes; test: Test on suppression of the melanin formation caused by human melanocytes (MSH added); type: cell-based; conditions: for Melanin formation suppressing activity (evaluation class): class of minimum concentration showing melanin formation suppressing activity; for Suppression rate of the melanin formation: human melanocytes + MSH, 6th day
Protocol: Human melanocytes in logarithmic growth phase were treated with trypsin and inoculated to a 6-well plate with “Medium 154s” (manufactured by Kurabo Industries Ltd., containing a growth factor (HMGS)), in an amount of 1.5×10^5 per 1 well in terms of cell number. The cells were cultured at 37° C. in a carbon dioxide incubator, the CO2 concentration being 5%, for 1 day. Thereafter, rinsing was carried out with the use of HBS (Hepes Buffer Saline), followed by medium replacement with “MCDB153” (containing fetal bovine serum, insulin, b-FGF, transferrin, and tocopherol), and followed by culturing for further 2 days. A whitening agent (containing a compound to be tested) was prepared with “MCDB153” (containing fetal bovine serum, insulin, b-FGF, transferrin, and tocopherol)+melanocyte-stimulating hormone in such way that the concentration would be 200 μM, 20 μM, or 2 μM, and was added to the 6-well plate. Also, a further 6-well plate culture was carried out with the use of “MCDB153” (containing fetal bovine serum, insulin, b-FGF, transferrin, and tocopherol)+melanocyte-stimulating hormone without the whitening agent, and still further a 6-well plate culture was carried out with the use of “MCDB153” (containing fetal bovine serum, insulin, b-FGF, transferrin, and tocopherol) alone, at the same time. The medium replacement with the above “MCDB153” (containing fetal bovine serum) containing a whitening agent was carried out twice every 2 days.
After the first addition of the whitening agent, the effect of suppressing the melanin formation was confirmed on the 6th day. Namely, the medium on each 6-well plate was removed by suction, and the wells were rinsed with HBS. Thereafter, the 6-well plate was air-dried, and ⅕M NaOH (230 μl) was added to the wells to dissolve the melanin out of the melanocytes. The solution (200 μl) was evaluated by Abs (absorbance) on a microplate reader (475 nm). The suppression rate of the melanin formation by each compound tested was calculated according to the following equation (1). The suppression rate of the melanin formation(%)={1−(A1−A3)/(A2−A3)}×100 (1) • A1: absorbance at 475 nm when both of the compound to be tested and MSH were added. • A2: absorbance at 475 nm when the compound to be tested was not added and MSH was added. • A3: absorbance at 475 nm when both of the compound to be tested and MSH were not added.

[2] = test system: B16 melanoma cells; test: Measurement of 50% inhibitory concentration of cAMP production (IC50) with 10 nM melanocyte-stimulating hormone; type: cell-based
Protocol: The 50% inhibitory concentration of cAMP production (IC50) according to the present invention regarding the compounds having a melanocyte-stimulating hormone (MSH) inhibitory activity is measured and defined as follows.
Namely, B16 melanoma cells are inoculated on a 12-well plate in such way that 1×10^4 cells are inoculated into 1 well, and cultured at 37° C. for 48 hours in the presence of 5% CO2. After the culturing, the wells are washed with 1 ml of a serum-free medium (serum-free D-MEM medium) per 1 well. Then, a serum-free medium containing 1 mM 3-isobutyl-1-methylxanthine, 10 nM melanocyte-stimulating hormone and a compound to be tested at a different concentration is added in an amount of 1 ml per 1 well, followed by incubation at 37° C. for 5 minutes. After the incubation, the medium is completely removed from the plate, 1 ml of ice-cooled 2.5% perchloric acid is exactly added thereto, and then the whole is incubated for 30 minutes under ice-cooling to extract cAMP from within the cells. After the incubation, the extract solution is neutralized by adding 4.2M potassium hydroxide solution in an amount of […] per 1 well.
The neutralized extract solution is centrifuged at 4° C. at 12,000 rpm for 10 minutes, and the amount of cAMP in the supernatant is quantitatively determined using “Biotrak cAMP EIA System” (manufactured by Amersham Pharmacia Biotech), as follows. By the way, all the operations are carried out at 5° C. or lower. First, cAMP authentic samples are prepared so as to be 0 to 3200 fM, and each sample is placed in an amount of 100 μl in a 96-well plate. Then, 200 μl of 0.05M acetate buffer (pH 5.8, containing 0.02% serum and 0.01% antiseptic agent) is placed in an NSB well (Non-specific Binding Well) and 100 μl in a blank well. In a sample well is placed 100 μl of a sample to be evaluated. In each of all the wells except for the blank well and the NSB well is added 100 μl of antiserum. The 96-well plate is capped, slowly shaken, and incubated at 3 to 5° C. for 2 hours. After the incubation, 50 μl of cAMP peroxidase is added to each of all the wells except for the blank well. The plate is capped and incubated at 3 to 5° C. for 1 hour. After the incubation, each of all the wells is washed four times with 400 μl in total of 0.01M phosphate buffer (pH 7.5, containing 0.05% “Tween 20”). The liquid remaining in the wells is removed by placing the plate in such manner that the opening parts of the wells face downward, and patting the plate on a paper.
To each of all the wells is added 150 μl of an enzyme substrate, and the plate is shaken at 15 to 30° C. for 1 hour. After the shaking, 100 μl of 1 M sulfuric acid is added to each well, and absorbance at 450 nm is measured. A calibration curve is prepared from the absorbance of the cAMP authentic samples and the amount of cAMP of each sample is determined.
The 50% inhibitory concentration of cAMP production (IC50) is defined by the value in terms of nM unit, of a 50% inhibitory concentration obtained by the above procedures, of a test compound against cAMP production with 10 nM melanocyte-stimulating hormone.
According to the method of measuring the 50% inhibitory concentration of cAMP production (IC50) explained in the above, IC50 was measured on the agents listed in following Table 2, i.e., D-1-Nal-Arg-LeuNH2, D-2-Nal-Arg-LeuNH2, L-1-Nal-Arg-LeuNH2 and D-Trp-Arg-LeuNH2.

[3] = Test of stability during storage (coloring of aqueous 0.1% solution, APHA method); type: physicochemical; conditions: for Degree of coloring (APHA Standard color): aqueous 0.1% solution stored at 4° C. for 6 months; for Stability during storage (evaluation class): class of degree of coloring, APHA standard colors
Protocol: An aqueous 0.1% solution of D-2-Nal-Arg-LeuNH2 of the present invention, and that of D-Trp-Arg-LeuNH2 which is a known melanocyte-stimulating hormone inhibitor were prepared and stored at 4° C. for 6 months, respectively. The stability during storage was evaluated by comparing the degree of coloring with standard colors of APHA (American Public Healthy Association) method.

[4] = test system: Weiser-Maples brown guinea pigs; test: Inhibitory test of melanocyte-stimulating hormone in living body (test of suppressing pigmentation in brown guinea pigs); type: in vivo, guinea pig; set-up: key: ◯: positive pigmentation suppressing effect; X: no pigmentation suppressing effect; —: not tested; conditions: 50 mM in 50% ethanol-water applied to skin, UVB irradiation, ΔL* vs 50% ethanol
Protocol: Inhibitory test of melanocyte-stimulating hormone was carried out by repeating the application of each test compound on a guinea pig and irradiation with ultraviolet rays, followed by measuring the degree of coloring, as follows.
D-2-Nal-Arg-LeuNH2 (50 mM, dissolved in 50% ethanol-water) and D-Trp-Arg-LeuNH2 (50 mM, dissolved in 50% ethanol-water) were used, and 50% ethanol-water was used as the control.
Male Weiser-Maples brown guinea pigs (4 weeks old) were purchased from Tokyo Experimental Animal K.K. and used after pre-reared for 7 weeks.
The brown guinea pigs were individually fixed by means of a fixing instrument and shaved in a square shape of about 3 cm×3 cm on their back with the use of a pair of hair clippers “THRIVE MODEL 6000AD” (manufactured by Natsume Seisakusyo) and “Home Hair Clipper Ceramic ER722” (manufactured by National) and an electric shaver “Dual 1500AC/RC” (manufactured by BRAUN). The skin after shaved was wiped with a water-soaked absorbent cotton, and the moisture was removed with a paper towel “KIMWIPE” (manufactured by CRECIA).
The skin of the back of the shaven brown guinea pigs was wiped with an ethanol-soaked absorbent cotton, and the horny layer having an area of about 2 cm×2 cm was subjected to tape stripping five times with the use of an adhesive tape “Scotch 313D” (manufactured by 3M). […]

[5] = B16 melanoma cells, 10 nM melanocyte-stimulating hormone, 5 min incubation, read-out: 50% inhibitory concentration (IC50) of cAMP production
[6] = class of 50% inhibitory concentration in the test, read-out: MSH inhibitory activity (evaluation class)

Row | SMILES | Melanin formation suppressing activity (evaluation class) [1] | Suppression rate of the melanin formation ([1]; concentration 20 μM) [%] | Suppression rate of the melanin formation ([1]; concentration 200 μM) [%] | IC50 [2, 5] [nM] | IC50 [2, 6] [nM] | Degree of coloring (APHA Standard color) [3] [APHA] | Stability during storage (evaluation class) [3] | Suppression rate of the melanin formation ([1]; concentration 2 μM) [%] | Brown Guinea pig pigmentation suppressing test (evaluation) [4]
1 | CC(C)C[C@H](NC(=O)[C@H](CCCNC(=N)N)NC(=O)[C@H](N)Cc1cccc2ccccc12)C(N)=O [D-1-Nal-Arg-LeuNH2] (H-[d1Nal]-Arg-Leu-NH2) | B (11 to 100 μM) | 43 | 52 | 540 | 101 to 1000 | – | – | – | –
2 | CC(C)C[C@H](NC(=O)[C@H](CCCNC(=N)N)NC(=O)[C@@H](N)Cc1cccc2ccccc12)C(N)=O [L-1-Nal-Arg-LeuNH2] (H-[1Nal]-Arg-Leu-NH2) | B (11 to 100 μM) | 8 | 28 | 470 | 101 to 1000 | – | – | – | –
3 | CC(C)C[C@H](NC(=O)[C@H](CCCNC(=N)N)NC(=O)[C@H](N)Cc1ccc2ccccc2c1)C(N)=O [D-2-Nal-Arg-LeuNH2] (H-[d2Nal]-Arg-Leu-NH2) | A (1 to 10 μM) | 51 | 70 | 42 | ≤ 100 | 20 | A (20 or less) | 49 | ◯
4 | CC(C)C[C@H](NC(=O)[C@H](CCCNC(=N)N)NC(=O)[C@H](N)Cc1c[nH]c2ccccc12)C(N)=O [D-Trp-Arg-LeuNH2, reference compound] (H-[dW]-Arg-Leu-NH2) | B (11 to 100 μM) | 24 | 57 | 230 | 101 to 1000 | 200 | C (101 or more) | – | X
